# Test system: panel of nearly 500 cancer cell lines
# Test: Cancer Cell Line Encyclopedia profiling, 3-day CellTiter-Glo
# Type: cell-based
# Conditions: Homo sapiens
smiles,measurement,setting,value
"CN(C)C(=O)c1cc2cnc(Nc3ccc(N4CCNCC4)cn3)nc2n1C1CCCC1 [Ribociclib, 7-cyclopentyl-2-(5-piperazin-1-yl-pyridin-2-ylamino)-7H-pyrrolo[2,3-d]pyrimidine-6-carboxylic acid dimethylamide]",EC50,MC116,> 8 µM
same,IC50,MC116,> 8 µM
same,EC50,MCF7,0.343 µM
same,IC50,MCF7,1.37 µM
same,EC50,MDA-MB-157,> 8 µM
same,IC50,MDA-MB-157,> 8 µM
same,EC50,MDA-MB-175-VII,> 8 µM
same,IC50,MDA-MB-175-VII,> 8 µM
same,EC50,MDA-MB-415,> 8 µM
same,IC50,MDA-MB-415,> 8 µM
same,EC50,MDA-MB-435S,0.207 µM
same,IC50,MDA-MB-435S,0.775 µM
same,EC50,MDA-MB-436,> 8 µM
same,IC50,MDA-MB-436,> 8 µM
same,EC50,MDA-MB-453,0.166 µM
same,IC50,MDA-MB-453,> 8 µM
same,EC50,MDA-MB-468,0.347 µM
same,IC50,MDA-MB-468,> 8 µM
same,EC50,MEC1,> 8 µM
same,IC50,MEC1,> 8 µM
same,EC50,MEG-01,0.392 µM
same,IC50,MEG-01,> 8 µM
same,EC50,MES-SA,0.839 µM
same,IC50,MES-SA,> 8 µM
same,EC50,MFE-280,> 8 µM
same,IC50,MFE-280,> 8 µM
same,EC50,MFE-296,0.163 µM
same,IC50,MFE-296,0.848 µM
same,EC50,MG-63,0.239 µM
same,IC50,MG-63,> 8 µM
same,EC50,MIA PaCa-2,2.36 µM
same,IC50,MIA PaCa-2,5.57 µM
same,EC50,MINO,0.266 µM
same,IC50,MINO,0.456 µM
same,EC50,MKN-7,> 8 µM
same,IC50,MKN-7,> 8 µM
same,EC50,MKN-45,0.23 µM
same,IC50,MKN-45,> 8 µM
same,EC50,MKN-74,> 8 µM
same,IC50,MKN-74,> 8 µM
same,EC50,MOLP-8,> 8 µM
same,IC50,MOLP-8,> 8 µM
same,EC50,MSTO-211H,> 8 µM
same,IC50,MSTO-211H,> 8 µM
same,EC50,Malme-3M,0.00254 µM
same,IC50,Malme-3M,> 8 µM
same,EC50,MeWo,2.57 µM
same,IC50,MeWo,2.57 µM
same,EC50,NCI-H23,> 8 µM
same,IC50,NCI-H23,> 8 µM
same,EC50,NCI-H28,> 8 µM
same,IC50,NCI-H28,6.1 µM
same,EC50,NCI-H211,0.368 µM
same,IC50,NCI-H211,> 8 µM
same,EC50,NCI-H226,> 8 µM
same,IC50,NCI-H226,> 8 µM
same,EC50,NCI-H358,6.86 µM
same,IC50,NCI-H358,> 8 µM
same,EC50,NCI-H441,0.337 µM
same,IC50,NCI-H441,> 8 µM
same,EC50,NCI-H460,> 8 µM
same,IC50,NCI-H460,> 8 µM
same,EC50,NCI-H520,> 8 µM
same,IC50,NCI-H520,> 8 µM
same,EC50,NCI-H522,> 8 µM
same,IC50,NCI-H522,> 8 µM
same,EC50,NCI-H647,> 8 µM
same,IC50,NCI-H647,> 8 µM
same,EC50,NCI-H650,2.43 µM
same,IC50,NCI-H650,> 8 µM
same,EC50,NCI-H661,> 8 µM
same,IC50,NCI-H661,> 8 µM
same,EC50,NCI-H727,1.06 µM
same,IC50,NCI-H727,> 8 µM
same,EC50,NCI-H747,> 8 µM
same,IC50,NCI-H747,> 8 µM
same,EC50,NCI-H810,> 8 µM
same,IC50,NCI-H810,> 8 µM
same,EC50,NCI-H1048,> 8 µM
same,IC50,NCI-H1048,> 8 µM
same,EC50,NCI-H1092,> 8 µM
same,IC50,NCI-H1092,> 8 µM
same,EC50,NCI-H1155,2.66 µM
same,IC50,NCI-H1155,> 8 µM
same,EC50,NCI-H1299,1.51 µM
same,IC50,NCI-H1299,> 8 µM
same,EC50,NCI-H1355,0.471 µM
same,IC50,NCI-H1355,> 8 µM
same,EC50,NCI-H1373,> 8 µM
same,IC50,NCI-H1373,> 8 µM
same,EC50,NCI-H1563,> 8 µM
same,IC50,NCI-H1563,> 8 µM
same,EC50,NCI-H1573,> 8 µM
same,IC50,NCI-H1573,> 8 µM
same,EC50,NCI-H1581,> 8 µM
same,IC50,NCI-H1581,> 8 µM
same,EC50,NCI-H1648,> 8 µM
same,IC50,NCI-H1648,> 8 µM
same,EC50,NCI-H1650,> 8 µM
same,IC50,NCI-H1650,> 8 µM
same,EC50,NCI-H1651,> 8 µM
same,IC50,NCI-H1651,> 8 µM
same,EC50,NCI-H1666,> 8 µM
